Assay [1] has as its target DRB1*1302 (DR6w19) (Homo sapiens, UniProt P01903+P01911, A100E/A169T/K41T/L162R/M171V/P40S/Q125H/Q178H/Q39Y/Q99D/R42S/S66N/T262R/V115G/W38E/Y61H). The format is binding.
Protocol: The lysates were cleared of debris and nuclei by centrifugation at 10,000 x g for 20 min.
Affinity purification of HLA-DR molecules.
(§1) Class II peptide-binding assays. […] These assays were chosen as to be representative of the most common DR alleles.
(§2) Radiolabeled peptides were iodinated using the chloramine-T method. […] In appropriate stoichiometric conditions, the IC50 of an unlabeled test peptide to the purified DR is a reasonable approximation of the affinity of interaction (Kd). Peptides were tested in two to four completely independent experiments. […] Final detergent concentration in the incubation mixture was 0.05% Nonidet P-40. Assays were performed at pH 7.0 with the exception of DR3, which was performed at pH 4.5, and DRw53, which was performed at pH 5.0.
(§3) All subsequent inhibition and direct binding assays were the performed using these class II concentrations.
DR6w19. The DR6w19 assay utilizes as the source of class II molecules the EBV transformed homozygous cell line H0301, which co-expresses DRB30301 (DR52a). While the radiolabeled ligand used in the DR6w19 assay is different than that used for the DR52a assay, the ligand is related (i.e., is a single substitution analog) to a high affinity DR52a binder. As was done in the case of DR4w15, the specificity of the assay was investigated by analyzing the binding capacity of a panel of naturally occurring peptides for DR6w19 and DR52a.
Assay [2] relates to panel of purified HLA DR molecules. The format is binding, human.
Protocol: as §1, §2, §3
Assay [3] has as its target T1, DRB1*1501 (DR2w2b) (Homo sapiens, UniProt P01903+P01911).
T1 construct: expressed in transfected cells; host or cells: L466.1 transfected fibroblasts
Nature of the assay: Class II peptide-binding assay, DR2w2b (DR2w2B1). As to conditions: Table VIII, values in parentheses read as lower bounds.
Protocol: as §1
In appropriate stoichiometric conditions, the IC50 of an unlabeled test peptide to the purified DR is a reasonable approximation of the affinity of interaction (Kd). Peptides were tested in two to four completely independent experiments. […] Final detergent concentration in the incubation mixture was 0.05% Nonidet P-40. Assays were performed at pH 7.0 with the exception of DR3, which was performed at pH 4.5, and DRw53, which was performed at pH 5.0.
as §3

Assay [4] concerns the target T2, DRB5*0101 (DR2w2a) (Homo sapiens, UniProt P01903+Q30154).
T2 construct: used as sources of human HLA class II molecules; endogenous in cells; host or cells: GM3107 (EBV-transformed homozygous B cell line)
The experiment in a line: Class II peptide-binding assay, DR2w2a (DR2w2B2).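 Further: competitive binding assay: unlabeled peptide inhibiting binding of a radiolabeled probe peptide to purified DR molecules at pH 7.0, IC50 approximating Kd, lower means stronger binding.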 Particulars: Table VIII, values in parentheses read as lower bounds.

Assay [5] deals with T3, DRB1*1101 (DR5w11) (Homo sapiens, UniProt P01903+P01911, A100R/A169T/A87E/I96F/K41T/L162R/M171V/P40S/Q125H/Q178H/Q39Y/Q99D/R42S/S66Y/T262R/V115G/W38E).
T3 construct: used as sources of human HLA class II molecules; endogenous in cells; host or cells: SWEIG (EBV-transformed homozygous B cell line)
T3 sequence (P01903 26-254, other chains not shown): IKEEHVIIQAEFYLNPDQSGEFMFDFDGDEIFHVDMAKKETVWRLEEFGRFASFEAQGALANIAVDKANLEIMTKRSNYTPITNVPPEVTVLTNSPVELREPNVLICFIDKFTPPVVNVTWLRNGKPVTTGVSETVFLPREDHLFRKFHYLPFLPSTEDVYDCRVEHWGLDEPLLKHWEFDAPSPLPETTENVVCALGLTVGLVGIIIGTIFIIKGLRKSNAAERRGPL
The experiment in a line: Class II peptide-binding assay, DR5w11.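 Further: competition by unlabeled test peptide against iodinated probe peptide binding to affinity-purified HLA-DR, class II amount titrated beforehand, half-maximal inhibitory concentration read as approximate Kd.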

For assay [6], the target named is DRB1*0701 (DR7) (Homo sapiens, UniProt P01903+P01911, A100R/A102G/A103Q/D57E/D86V/E43K/F76Y/K127E/L162R/M171V/P40G/Q125H/Q99D/R33Q/R42Y/R54Q/S133A/S66F/T210M/V115G/Y107V/Y59L/Y89S). The experiment in a line: Class II peptide-binding assay, DR7.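 Further: unlabeled peptides compete with an iodinated probe peptide for binding to affinity-purified HLA-DR at neutral pH, DR amount titered to bind a small tracer fraction, IC50 approximating Kd.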 As to conditions: read-out: In IC50 Format DR7 nM; Table VIII; values in parentheses read as lower bounds.
Protocol: as §1, §2, §3
The target in assay [7] is T4, DRB1*0101 (DR1) (Homo sapiens, UniProt P01903+P01911, A100R/D57E/F55L/F60I/F76Y/I96L/L162R/M171V/P40L/Q125E/R42F/V115G/Y59C).
T4 construct: used as sources of human HLA class II molecules; endogenous in cells; host or cells: LG2 (EBV-transformed homozygous B cell line)
The experiment in a line: Class II peptide-binding assay, DR1.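 Further: competition assay: unlabeled test peptides inhibit binding of a radiolabeled probe peptide to purified DR, with half-maximal inhibition taken as an approximate dissociation constant Kd.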 As to conditions: Table VIII, values in parentheses read as lower bounds.
Protocol: as §1, §2, §3

The target of assay [8] is T5, DRB1*0802 (DR8w2) (Homo sapiens, UniProt P01903+P01911, A100R/A103L/A169T/F76Y/H45Y/I96F/K41T/L162R/M171V/P40S/Q125H/Q178H/Q39Y/Q99D/R218S/R42G/S66Y/V115G/W38E).
T5 construct: used as sources of human HLA class II molecules; endogenous in cells; host or cells: OLL (EBV-transformed homozygous B cell line)
Nature of the assay: Class II peptide-binding assay, DR8w2. As to conditions: read-out: In IC50 Format DR8w2 nM; Table VIII; values in parentheses read as lower bounds.
Protocol: as §1, §2, §3
DR8w2 and DR8w3. The β1 specificity of the DR8w2 and DR8w3 assays is obvious in that no β3 (and/or B4 and β5) molecule is expressed.

The mark [9] stands for this setting: read-out: In IC50 Format DR2w2B1 nM.
Where [10] appears, read: read-out: In IC50 Format DR5w11 nM; Table VIII; values in parentheses read as lower bounds.

In general, IC50 refers to the concentration at which inhibition is half-maximal.

Where two headings read alike, the source gives them in different places.
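Wherever Total Alleles Bound is given: competitive inhibition of radiolabeled probe peptide binding to purified HLA DR molecules, with inhibitory potency of unlabeled peptides taken as an approximation of affinity.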

Chain of DRB1*1302 (DR6w19) (P01903 26-254, other chains not shown): as above

With `CC[C@H](C)[C@H](N)C(=O)N1CCC[C@H]1C(=O)N[C@@H](CCC(N)=O)C(=O)N[C@@H](CCC(=O)O)C(=O)N[C@@H](Cc1c[nH]c2ccccc12)C(=O)N[C@@H](CCCCN)C(=O)N1CCC[C@H]1C(=O)N[C@@H](C)C(=O)N[C@H](C(=O)N[C@H](C(=O)N[C@H](C(=O)N[C@@H](CCCCN)C(=O)N[C@H](C(=O)N[C@@H](CC(C)C)C(=O)N1CCC[C@H]1C(=O)N[C@@H](C)C(=O)O)C(C)C)C(C)C)[C@@H](C)O)[C@@H](C)CC` [Peptide 1136.21], the IC50 in assay [1] (Table V B) Correct Predictions, read-out: Binding Capacity (IC50% nM) DR6w19) is 259 nM. Besides, in assay [2], the “Total Alleles Bound” value came to 7.
In the case of `CC[C@H](C)[C@H](NC(=O)[C@H](CCSC)NC(=O)[C@H](Cc1c[nH]c2ccccc12)NC(=O)[C@@H](N)CS)C(=O)N[C@@H](CC(=O)O)C(=O)N[C@@H](CO)C(=O)N[C@@H](CCC(=O)O)C(=O)N[C@@H](CS)C(=O)N[C@@H](CCCNC(=N)N)C(=O)N1CCC[C@H]1C(=O)N[C@@H](CCCNC(=N)N)C(=O)N[C@@H](Cc1ccccc1)C(=O)N[C@@H](CCCNC(=N)N)C(=O)N[C@@H](CCC(=O)O)C(=O)N[C@@H](CC(C)C)C(=O)O` [Peptide 39.0369], the IC50 was greater than 15.2 µM in assay [3] (setting [9]); 1.33 µM in assay [4] (read-out: In IC50 Format DR2w2B2); greater than 25 µM in assay [5] (setting [10]); greater than 35000 nM in assay [1] (read-out: In IC50 Format DR6w19 nM, Table VIII, values in parentheses read as lower bounds); greater than 17.9 µM in assay [6].
`CC(C)C[C@H](NC(=O)[C@H](CC(=O)O)NC(=O)[C@H](CCCNC(=N)N)NC(=O)[C@H](Cc1c[nH]cn1)NC(=O)[C@@H](NC(=O)[C@H](CC(C)C)NC(=O)[C@H](CCCNC(=N)N)NC(=O)[C@@H](N)C(C)C)C(C)C)C(=O)N[C@@H](C)C(=O)N[C@@H](C)C(=O)N[C@@H](CCCNC(=N)N)C(=O)N[C@@H](CC(N)=O)C(=O)N[C@H](C(=O)N[C@@H](CC(C)C)C(=O)N[C@H](C(=O)O)C(C)C)C(C)C` [Peptide 39.0365]: the IC50 in assay [7] (read-out: In IC50 Format DR1) came out at 0.147 µM; in assay [5] (Table VIII; values in parentheses read as lower bounds; read-out: In IC50 Format DR5w11 nM), 0.0741 µM; in assay [1] (Table VIII, values in parentheses read as lower bounds, read-out: In IC50 Format DR6w19 nM), 81.4 nM.
Take `CC(C)C[C@H](NC(=O)[C@H](C)NC(=O)[C@H](CCC(N)=O)NC(=O)[C@H](Cc1c[nH]cn1)NC(=O)[C@@H]1CCCN1C(=O)[C@H](CC(N)=O)NC(=O)[C@H](CCCNC(=N)N)NC(=O)[C@H](Cc1ccccc1)NC(=O)[C@H](CC(C)C)NC(=O)[C@H](CCC(N)=O)NC(=O)[C@H](CC(=O)O)NC(=O)[C@@H](N)Cc1c[nH]c2ccccc12)C(=O)N[C@@H](CC(C)C)C(=O)N[C@@H](Cc1c[nH]cn1)C(=O)N[C@H](C(=O)O)[C@@H](C)O` [Peptide 39.0354]: the IC50 in assay [7] (read-out: In IC50 Format DR1 nM) is greater than 50 µM; in assay [3] (setting [9]), 6.07 µM; in assay [4] (read-out: In IC50 Format DR2w2B2 nM) it was greater than 28.6 µM; in assay [5] (setting [10]) it was greater than 25 µM; in assay [6] it was greater than 14.7 µM; in assay [8] it was greater than 54.4 µM.
As for `CC[C@H](C)[C@H](N)C(=O)N[C@@H](CCCCN)C(=O)N[C@@H](Cc1c[nH]c2ccccc12)C(=O)N[C@@H](CCSC)C(=O)N[C@@H](C)C(=O)N[C@@H](CC(C)C)C(=O)N[C@@H](CCC(=O)O)C(=O)N[C@@H](CO)C(=O)N[C@H](C(=O)N[C@@H](CC(C)C)C(=O)N[C@@H](CCCNC(=N)N)C(=O)N[C@@H](CCCNC(=N)N)C(=O)N[C@@H](CCCNC(=N)N)C(=O)N[C@@H](Cc1ccccc1)C(=O)N[C@H](C(=O)O)[C@@H](C)O)[C@@H](C)CC` [Peptide 39.0368], in assay [3] (read-out: In IC50 Format DR2w2B1), the IC50 was found to be 0.0106 µM.
